Active and inactive are the calls of the source. No cut-off for these calls is given here.
Experiments:
[1] = system: Candida albicans; assay: Compound was tested for the antifungal activity against Candida albicans (IFO1594) at a concentration of 1 ug/disk; zone of inhibition was measured after 48 hr incubation.; format: functional
[2] = system: Penicillium citrinum; assay: Compound was tested for the antifungal activity against Penicillium citrinum (R-3703) at a concentration of 1 ug/disk; zone of inhibition was measured after 48 hr incubation.; format: functional
[3] = system: Candida albicans; assay: Compound was tested for the antifungal activity against Candida albicans (IFO1594) at a concentration of 0.1 ug/disk; zone of inhibition was measured after 48 hr incubation; +/- denotes slightly effective; format: functional, organism-based
[4] = system: Penicillium citrinum; assay: Compound was tested for the antifungal activity against Penicillium citrinum (R-3703) at a concentration of 10 ug/disk; zone of inhibition was measured after 48 h incubation.; format: functional
[5] = system: Fusarium solani; assay: Compound was tested for the antifungal activity against Fusarium solani (R-2800) at a concentration of 10 ug/disk; zone of inhibition was measured after 48 hr incubation; incomplete inhibition observed; format: functional
[6] = system: Saccharomyces cerevisiae; assay: Compound was tested for the antifungal activity against Saccharomyces cerevisiae (IAM4861) at a concentration of 0.1 ug/disk; zone of inhibition was measured after 48 hr incubation.; format: functional
[7] = system: Aspergillus fumigatus; assay: Compound was tested for the antifungal activity against Aspergillus fumigatus (R-1301) at a concentration of 1 ug/disk; zone of inhibition was measured after 48 hr incubation.; format: functional
[8] = system: MRC5; assay: Cytotoxicity against human diploid embryotic cell line (MRC-5); format: functional, cell-based
[9] = system: Aspergillus fumigatus; assay: Compound was tested for the antifungal activity against Aspergillus fumigatus (R-1301) at a concentration of 10 ug/disk; zone of inhibition was measured after 48 hr incubation.; format: functional
[10] = system: Fusarium solani; assay: Compound was tested for the antifungal activity against Fusarium solani (R-2800) at a concentration of 1 ug/disk; zone of inhibition was measured after 48 hr incubation; incomplete inhibition observed; format: functional
[11] = system: Saccharomyces cerevisiae; assay: Compound was tested for the antifungal activity against Saccharomyces cerevisiae (IAM4861) at a concentration of 1 ug/disk; zone of inhibition was measured after 48 hr incubation.; format: functional
[12] = system: Fusarium solani; assay: Compound was tested for the antifungal activity against Fusarium solani (R-2800) at a concentration of 0.1 ug/disk; zone of inhibition was measured after 48 hr incubation; NE denotes not effective; format: functional, organism-based
[13] = system: Candida albicans; assay: Compound was tested for the antifungal activity against Candida albicans (IFO1594) at a concentration of 10 ug/disk; zone of inhibition was measured after 48 hr incubation.; format: functional
[14] = system: Aspergillus fumigatus; assay: Compound was tested for the antifungal activity against Aspergillus fumigatus (R-1301) at a concentration of 0.1 ug/disk; zone of inhibition was measured after 48 hr incubation.; format: functional
[15] = system: Saccharomyces cerevisiae; assay: Compound was tested for the antifungal activity against Saccharomyces cerevisiae (IAM4861) at a concentration of 10 ug/disk; zone of inhibition was measured after 48 hr incubation.; format: functional
[16] = system: Penicillium citrinum; assay: Compound was tested for the antifungal activity against Penicillium citrinum (R-3703) at a concentration of 0.1 ug/disk; zone of inhibition was measured after 48 hr incubation; +/- denotes slightly effective; format: functional, organism-based
[17] = system: Aspergillus fumigatus; assay: Compound was tested for the antifungal activity against Aspergillus fumigatus (R-1301) at a concentration of 0.1 ug/disk; zone of inhibition was measured after 48 hr incubation; +/- denotes slightly effective; format: functional, organism-based
[18] = system: Saccharomyces cerevisiae; assay: Compound was tested for the antifungal activity against Saccharomyces cerevisiae (IAM4861) at a concentration of 10 ug/disk; zone of inhibition was measured after 48 hr incubation; incomplete inhibition observed; format: functional
[19] = system: Fusarium solani; assay: Compound was tested for the antifungal activity against Fusarium solani (R-2800) at a concentration of 10 ug/disk; zone of inhibition was measured after 48 hr incubation; NE denotes not effective; format: functional, organism-based
[20] = system: MRC5; assay: Cytotoxicity against the human diploid embryotic cell line (MRC-5); format: functional, cell-based
[21] = system: Fusarium solani; assay: Compound was tested for the antifungal activity against Fusarium solani (R-2800) at a concentration of 1 ug/disk; zone of inhibition was measured after 48 hr incubation; NE denotes not effective; format: functional, organism-based
[22] = system: Candida albicans; assay: Compound was tested for the antifungal activity against Candida albicans (IFO1594) at a concentration of 10 ug/disk; zone of inhibition was measured after 48 hr incubation; incomplete inhibition observed; format: functional
[23] = system: Saccharomyces cerevisiae; assay: Compound was tested for the antifungal activity against Saccharomyces cerevisiae (IAM4861) at a concentration of 1 ug/disk; zone of inhibition was measured after 48 hr incubation; incomplete inhibition observed; format: functional
[24] = system: Candida albicans; assay: Compound was tested for the antifungal activity against Candida albicans (IFO1594) at a concentration of 1 ug/disk; zone of inhibition was measured after 48 h incubation; incomplete inhibition observed; format: functional
[25] = system: Saccharomyces cerevisiae; assay: Compound was tested for the antifungal activity against Saccharomyces cerevisiae (IAM4861) at a concentration of 0.1 ug/disk; zone of inhibition was measured after 48 hr incubation; incomplete inhibition observed; format: functional
[26] = system: Penicillium citrinum; assay: Compound was tested for the antifungal activity against Penicillium citrinum (R-3703) at a concentration of 0.1 ug/disk; zone of inhibition was measured after 48 hr incubation.; format: functional
[27] = system: Aspergillus fumigatus; assay: Compound was tested for the antifungal activity against Aspergillus fumigatus (R-1301) at a concentration of 0.1 ug/disk; zone of inhibition was measured after 48 hr incubation; NE denotes not effective; format: functional, organism-based
[28] = system: Aspergillus fumigatus; assay: Compound was tested for the antifungal activity against Aspergillus fumigatus (R-1301) at a concentration of 1 ug/disk; zone of inhibition was measured after 48 hr incubation; +/- denotes slightly effective; format: functional, organism-based
[29] = system: Saccharomyces cerevisiae; assay: Compound was tested for the antifungal activity against Saccharomyces cerevisiae (IAM4861) at a dose of 1 ug/disk; the diameter of each inhibition zone was measured after 48 hr incubation.; format: functional
[30] = system: Candida albicans; assay: Compound was tested for the antifungal activity against Candida albicans (IFO1594) at a concentration of 0.1 ug/disk; zone of inhibition was measured after 48 h incubation; NE denotes not effective; format: functional, organism-based
[31] = system: Candida albicans; assay: Compound was tested for the antifungal activity against Candida albicans (IFO1594) at a concentration of 1 ug/disk; zone of inhibition was measured after 48 hr incubation; format: functional
[32] = system: Aspergillus fumigatus; assay: Compound was tested for the antifungal activity against Aspergillus fumigatus (R-1301) at a concentration of 10 ug/disk; zone of inhibition was measured after 48 hr incubation; format: functional
[33] = system: Penicillium citrinum; assay: Compound was tested for the antifungal activity against Penicillium citrinum (R-3703) at a concentration of 0.1 ug/disk; zone of inhibition was measured after 48 hr incubation; NE denotes not effective; format: functional, organism-based
[34] = system: Penicillium citrinum; assay: Compound was tested for the antifungal activity against Penicillium citrinum (R-3703) at a concentration of 10 ug/disk; the diameter of each inhibition zone was measured after 48 hr incubation; NE denotes not effective; format: functional, organism-based
[35] = system: Saccharomyces cerevisiae; assay: Compound was tested for the antifungal activity against Saccharomyces cerevisiae (IAM4861) at a concentration of 0.1 ug/disk; zone of inhibition was measured after 48 hr incubation; +/- denotes slightly effective; format: functional, organism-based
[36] = system: Penicillium citrinum; assay: Compound was tested for the antifungal activity against Penicillium citrinum (R-3703) at a concentration of 1 ug/disk; zone of inhibition was measured after 48 hr incubation; NE denotes not effective; format: functional, organism-based

CO\C=C(C(=O)OC)/C(C)=C(\C=C\c1ccc2ccccc2c1)OC
Diameter of inhibition zone [1]: 16 mm
Diameter of inhibition zone [2]: 14 mm
Diameter of inhibition zone [3]: Weak activity
Diameter of inhibition zone [4]: 19 mm
Diameter of inhibition zone [5]: 13 mm
Diameter of inhibition zone [6]: 12 mm
Diameter of inhibition zone [7]: 13 mm
IC50 ([8]; Homo sapiens, MRC5): > 100 µM
Diameter of inhibition zone [9]: 18 mm
Diameter of inhibition zone [10]: 14 mm
Diameter of inhibition zone [11]: 30 mm
Diameter of inhibition zone [12]: inactive
Diameter of inhibition zone [13]: 26 mm
Diameter of inhibition zone [14]: 4 mm
Diameter of inhibition zone [15]: 37 mm
Diameter of inhibition zone [16]: Weak activity

CO\C=C(C(=O)OC)/C(C)=C(\C=C\c1ccccc1)OC [9-METHOXYSTROBILURIN A]
Diameter of inhibition zone [17]: slightly effective
Diameter of inhibition zone [2]: 18 mm
Diameter of inhibition zone [3]: incomplete inhibition
Diameter of inhibition zone [4]: 28 mm
Diameter of inhibition zone [18]: 49 mm
Diameter of inhibition zone [7]: 15 mm
Diameter of inhibition zone [9]: 31 mm
Diameter of inhibition zone [19]: inactive
IC50 [20]: 34 µM
Diameter of inhibition zone [21]: inactive
Diameter of inhibition zone [12]: inactive
Diameter of inhibition zone [22]: 36 mm
Diameter of inhibition zone [23]: 40 mm
Diameter of inhibition zone [24]: 28 mm
Diameter of inhibition zone [25]: 17 mm
Diameter of inhibition zone [26]: 4 mm

NYSTATIN [listing 1 of 2 here]
IC50 ([8]; mrc5): 34 µM

CO\C=C(C(=O)OC)/C(C)=C(\C=C\c1ccc(OC)c(OC)c1)OC
Diameter of inhibition zone [2]: 13 mm
Diameter of inhibition zone [3]: Weak activity
Diameter of inhibition zone [4]: 22 mm
Diameter of inhibition zone [18]: 43 mm
IC50 ([8]; Homo sapiens, MRC5): 12 µM
Diameter of inhibition zone [9]: 20 mm
Diameter of inhibition zone [19]: inactive
Diameter of inhibition zone [21]: inactive
Diameter of inhibition zone [12]: inactive
Diameter of inhibition zone [22]: 34 mm
Diameter of inhibition zone [23]: 38 mm
Diameter of inhibition zone [16]: Weak activity
Diameter of inhibition zone [24]: 26 mm
Diameter of inhibition zone [27]: inactive
Diameter of inhibition zone [28]: Weak activity
Diameter of inhibition zone [25]: 20 mm

CO\C=C(C(=O)OC)/C(C)=C(\C=C\c1ccc2c(c1)OCO2)OC
Diameter of inhibition zone [2]: 10 mm
Diameter of inhibition zone [3]: Weak activity
Diameter of inhibition zone [4]: 18 mm
Diameter of inhibition zone [18]: 42 mm
IC50 ([8]; Homo sapiens, MRC5): > 100 µM
Diameter of inhibition zone [9]: 22 mm
Diameter of inhibition zone [19]: inactive
Diameter of inhibition zone [21]: inactive
Diameter of inhibition zone [12]: inactive
Diameter of inhibition zone [22]: 32 mm
Diameter of inhibition zone [23]: 36 mm
Diameter of inhibition zone [16]: Weak activity
Diameter of inhibition zone [24]: 22 mm
Diameter of inhibition zone [27]: inactive
Diameter of inhibition zone [28]: Weak activity
Diameter of inhibition zone [25]: 8 mm

NYSTATIN [listing 2 of 2 here]
Diameter of inhibition zone [4]: 12 mm
Diameter of inhibition zone [9]: 14 mm
Diameter of inhibition zone [19]: inactive
Diameter of inhibition zone [13]: 16 mm
Diameter of inhibition zone [15]: 18 mm

CO\C=C(C(=O)OC)/C(C)=C(\C=C\c1cccc(OC)c1)OC
Diameter of inhibition zone [2]: 19 mm
Diameter of inhibition zone [3]: Weak activity
Diameter of inhibition zone [4]: 25 mm
Diameter of inhibition zone [18]: 35 mm
Diameter of inhibition zone [7]: 9 mm
IC50 ([8]; Homo sapiens, MRC5): 27 µM
Diameter of inhibition zone [9]: 23 mm
Diameter of inhibition zone [19]: inactive
Diameter of inhibition zone [21]: inactive
Diameter of inhibition zone [12]: inactive
Diameter of inhibition zone [22]: 32 mm
Diameter of inhibition zone [23]: 29 mm
Diameter of inhibition zone [24]: 27 mm
Diameter of inhibition zone [27]: inactive
Diameter of inhibition zone [25]: 16 mm
Diameter of inhibition zone [26]: 8 mm

CO\C=C(C(=O)OC)/C(C)=C(\C=C\c1cccc2ccccc12)OC
Diameter of inhibition zone [2]: 12 mm
Diameter of inhibition zone [4]: 17 mm
Diameter of inhibition zone [29]: 18 mm
Diameter of inhibition zone [30]: inactive
Diameter of inhibition zone [6]: 5 mm
Diameter of inhibition zone [7]: 10 mm
IC50 ([8]; Homo sapiens, MRC5): > 100 µM
Diameter of inhibition zone [19]: inactive
Diameter of inhibition zone [21]: inactive
Diameter of inhibition zone [12]: inactive
Diameter of inhibition zone [13]: 15 mm
Diameter of inhibition zone [15]: 22 mm
Diameter of inhibition zone [16]: Weak activity
Diameter of inhibition zone [31]: 5 mm
Diameter of inhibition zone [27]: inactive
Diameter of inhibition zone [32]: 14 mm

CO\C=C(C(=O)OC)/C(C)=C(\C=C\c1ccc(OC)cc1)OC
Diameter of inhibition zone [2]: 23 mm
Diameter of inhibition zone [3]: Weak activity
Diameter of inhibition zone [4]: 29 mm
Diameter of inhibition zone [18]: 42 mm
Diameter of inhibition zone [7]: 18 mm
IC50 ([8]; Homo sapiens, MRC5): 35 µM
Diameter of inhibition zone [9]: 29 mm
Diameter of inhibition zone [19]: inactive
Diameter of inhibition zone [21]: inactive
Diameter of inhibition zone [12]: inactive
Diameter of inhibition zone [22]: 33 mm
Diameter of inhibition zone [14]: 4 mm
Diameter of inhibition zone [23]: 36 mm
Diameter of inhibition zone [24]: 27 mm
Diameter of inhibition zone [25]: 28 mm
Diameter of inhibition zone [26]: 9 mm

C=CC(C)(C)O[C@H]1COc2ccc(/C=C/C(OC)=C(C)\C(=C/OC)C(=O)OC)cc2OC1(C)C
Diameter of inhibition zone [17]: Weak activity
Diameter of inhibition zone [1]: 17 mm
Diameter of inhibition zone [33]: inactive
Diameter of inhibition zone [34]: inactive
Diameter of inhibition zone [35]: Weak activity
Diameter of inhibition zone [5]: 25 mm
Diameter of inhibition zone [30]: inactive
Diameter of inhibition zone [7]: 8 mm
IC50 ([8]; Homo sapiens, MRC5): 0.36 µM
Diameter of inhibition zone [9]: 10 mm
Diameter of inhibition zone [10]: 19 mm
Diameter of inhibition zone [11]: 20 mm
Diameter of inhibition zone [12]: inactive
Diameter of inhibition zone [13]: 22 mm
Diameter of inhibition zone [15]: 25 mm
Diameter of inhibition zone [36]: inactive

From ChEMBL document CHEMBL1136032, “Remarkable influence of the aromatic substructure in 9-methoxystrobilurin derivatives on their antifungal activity” (Bioorg Med Chem Lett, 2002)
